Data as given in patent US8513236B2 (Laurus Labs Private Limited, priority 2010, dated 2013).
“Also recorded” adds a separate entry of the source.

How the values were obtained:
[1] = Relative humidity stability at ambient temperature, analyzed by XRPD; assay type: physicochemical
Source text: Upon completion of the duration allowed, the samples were immediately analyzed by XRPD.

[2] = Slurrying in water, resulting solid form; assay type: physicochemical; details: for result of slurrying in water: three days
hyperglycemic rats = details: cited from earlier work
cancer cell lines = details: in vitro; cited from earlier work
[3] = cited from earlier work
[4] = cited from earlier work; remark: listed apart in the source
[5] = Intrinsic dissolution in 900 mL water at ambient conditions (attempted); assay type: physicochemical; details: after 30 minutes
Description: Intrinsic dissolution in 900 mL water at ambient conditions was also attempted. […] Therefore, a concentration vs. time and intrinsic dissolution rate value were unobtainable at these conditions.

For Cn1c(=O)c2c(ncn2C)n(C)c1=O [caffeine], the Results ([1]; 75% RH, 1 week) was “caffeine anhydrous”, the Results ([1]; 75% RH, 4 weeks) was “does not display signs of conversion; also recorded: caffeine anhydrous” and the Results ([1]; 75% RH, 1 day) was “caffeine anhydrous”. For the same compound, the Results ([1]; 75% RH, 3 days) was “caffeine anhydrous”, the Results ([1]; 94% RH, 1 week (7 days)) was “caffeine hydrate” and the Results ([1]; 94% RH, 4 weeks) was “caffeine hydrate”. For the same compound, the Results ([1]; 94% RH, 1 day) was “caffeine anhydrous”, the Results ([1]; 94% RH, 3 days) was “caffeine anhydrous/caffeine hydrate” and the conversion to hydrate ([1]; 94% RH, between one and three days) was “partial conversion”. The Results ([1]; 98% RH, 1 week) was “caffeine hydrate”, the Results ([1]; 98% RH, 4 weeks) was “caffeine hydrate” and the Results ([1]; 98% RH, 1 day) was “caffeine hydrate”. The Results ([1]; 98% RH, 3 days) was “caffeine hydrate” and the conversion to hydrate ([1]; 98% RH, in less than one day) was “converts to caffeine hydrate”.
In the case of COc1cc(/C=C/c2ccc(O)cc2)cc(OC)c1.Cn1c(=O)c2c(ncn2C)n(C)c1=O [cocrystal 1 (Form I), pterostilbene:caffeine], the Results ([1]; 75% RH, 1 week) is reported as “cocrystal 1 (Form I), no caffeine hydrate”, the Results ([1]; 75% RH, 1 week, additional stress at 98% RH) is reported as “cocrystal 1 (Form I), no caffeine hydrate” and the Results ([1]; 75% RH, 4 weeks) is reported as “cocrystal 1 (Form I), no caffeine hydrate”. The Results ([1]; 75% RH, 1 day) was “cocrystal 1 (Form I), no caffeine hydrate”, the Results ([1]; 75% RH, 1 day, additional stress at 98% RH) was “cocrystal 1 (Form I), no caffeine hydrate” and the Results ([1]; 75% RH, 3 days) was “cocrystal1 (Form I), no caffeine hydrate”. For the same compound, the Results ([1]; 94% RH, 1 week (7 days)) was “cocrystal 1 (Form I), no caffeine hydrate”, the Results ([1]; 94% RH, 4 weeks) was “cocrystal 1 (Form I), no caffeine hydrate” and the Results ([1]; 94% RH, 1 day) was “cocrystal 1 (Form I), no caffeine hydrate”. For the same compound, the Results ([1]; 94% RH, 3 days) was “cocrystal 1 (Form I), no caffeine hydrate”, the Results ([1]; 94% RH, 7 days, additional stress at 98% RH, 4 weeks) was “cocrystal 1 (Form I), no caffeine hydrate” and the Results ([2]; slurry, 2 days) was “cocrystal 1 (Form I), no caffeine hydrate”. For the same compound, the “result of slurrying in water” value [2] was “precipitation of pterostilbene”.
For “pterostilbene:carbamazepine [cocrystal 2]”, the “result of slurrying in water” value [2] was “stable”.
For CN(C)C(=N)N=C(N)N [metformin], the “decreased plasma glucose levels” value (hyperglycemic rats) is listed as 48%.
With COc1cc(/C=C/c2ccc(O)cc2)cc(OC)c1.Cn1c(=O)c2c(ncn2C)n(C)c1=O [cocrystal 1, pterostilbene:caffeine] the Results ([1]; 75% RH, 4 weeks) was “no dissociation”, the Results ([1]; 94% RH, 4 weeks) was “no dissociation” and the Results ([1]; 98% RH, 4 weeks) was “no dissociation”.
With COc1cc(/C=C/c2ccc(O)cc2)cc(OC)c1 [pterostilbene, trans-3,5-dimethoxy-4′-hydroxystilbene] the Results ([1]; 75% RH, 4 weeks) was “pterostilbene (Form I)”, the Results ([1]; 94% RH, 4 weeks) was “pterostilbene (Form I)” and the Results ([1]; 98% RH, 4 weeks) was “pterostilbene (Form I)”. The “cytotoxic activity against cancer cell lines” value (cancer cell lines) was “cytotoxic activity”, the solubility in water [3] was “poor solubility in water” and the bioavailability [4] was “poor bioavailability”.
For “pterostilbene:glutaric acid [cocrystal 3]”, the Results ([1]; 75% RH, 4 weeks) was “no dissociation”, the Results ([1]; 94% RH, 4 weeks) was “no dissociation” and the Results ([1]; 98% RH, 4 weeks) was “no dissociation”. The “XRPD results when slurrying in water at ambient” value ([2]; after 5 minutes) was “crystalline pterostilbene” and the “XRPD results, intrinsic dissolution” value [5] was “crystalline pterostilbene”.
